Measurements taken from ChEMBL document CHEMBL3580595, “Design, synthesis and biological evaluation of novel trimethylpyrazine-2-carbonyloxy-cinnamic acids as potent cardiovascular agents” (Medchemcomm, 2014).
One block for each molecule: values may come before it.

Tests used:
[1] = Anti-platelet activity in rabbit platelet-rich plasma assessed as inhibition of ADP-induced platelet aggregation at 25 uM incubated for 5 mins at 37 degC by aggregometry; assay type: functional; settings: Oryctolagus cuniculus
[2] = Cytoprotective activity against H2O2-induced cytotoxicity in human EAhy926 cells at 50 uM pre-incubated for 24 hrs before H2O2 challenge for 12 hrs by MTT assay; assay type: functional, EA.hy 926
[3] = Cytoprotective activity against H2O2-induced cytotoxicity in human EAhy926 cells at 25 uM pre-incubated for 24 hrs before H2O2 challenge for 12 hrs by MTT assay; assay type: functional, EA.hy 926
[4] = Cytoprotective activity against H2O2-induced cytotoxicity in human EAhy926 cells pre-incubated for 24 hrs before H2O2 challenge for 12 hrs by MTT assay; assay type: functional, cell-based; settings: EA.hy 926
[5] = Cytoprotective activity against H2O2-induced cytotoxicity in human EAhy926 cells at 100 uM pre-incubated for 24 hrs before H2O2 challenge for 12 hrs by MTT assay; assay type: functional, EA.hy 926
[6] = Cytoprotective activity against H2O2-induced cytotoxicity in human EAhy926 cells at 12.5 uM pre-incubated for 24 hrs before H2O2 challenge for 12 hrs by MTT assay; assay type: functional, EA.hy 926
[7] = Anti-platelet activity in rabbit platelet-rich plasma assessed as inhibition of ADP-induced platelet aggregation at 100 uM incubated for 5 mins at 37 degC by aggregometry; assay type: functional; settings: Oryctolagus cuniculus
[8] = Anti-platelet activity in rabbit platelet-rich plasma assessed as inhibition of ADP-induced platelet aggregation at 50 uM incubated for 5 mins at 37 degC by aggregometry; assay type: functional; settings: Oryctolagus cuniculus
[9] = Anti-platelet activity in rabbit platelet-rich plasma assessed as inhibition of ADP-induced platelet aggregation incubated for 5 mins at 37 degC by aggregometry; assay type: functional; settings: Oryctolagus cuniculus
[10] = Anti-platelet activity in rabbit platelet-rich plasma assessed as inhibition of ADP-induced platelet aggregation at 12.5 uM incubated for 5 mins at 37 degC by aggregometry; assay type: functional; settings: Oryctolagus cuniculus

IC50 [9]: 37.8 µM
SMILES: Cc1nc(C)c(C(=O)Oc2ccc(/C=C/C(=O)O)cc2)nc1C
inhibition at 25 µM [1]: 53.3%
Activity [2]: 74.1%
Activity [3]: 46.6%
EC50 [4]: 38 µM
Activity [5]: 93.2%
Activity [6]: 34.2%
inhibition at 100 µM [7]: 25.3%
inhibition at 50 µM [8]: 41.7%
inhibition at 12.5 µM [10]: 64.3%

IC50 [9]: 24.4 µM
SMILES: CCOC(=O)/C=C/c1ccc(OC(=O)c2nc(C)c(C)nc2C)cc1
inhibition at 25 µM [1]: 39.1%
Activity [2]: 62.6%
Activity [3]: 58.8%
EC50 [4]: 34.9 µM
Activity [5]: 96.1%
Activity [6]: 42.7%
inhibition at 100 µM [7]: 20.5%
inhibition at 50 µM [8]: 32.2%
inhibition at 12.5 µM [10]: 68%

IC50 [9]: 26.4 µM
SMILES: Cc1nc(C)c(C(=O)Oc2cccc(/C=C/C(=O)O)c2)nc1C
inhibition at 25 µM [1]: 38.5%
Activity [2]: 75.3%
Activity [3]: 64.3%
EC50 [4]: 24 µM
Activity [5]: 103%
Activity [6]: 61.6%
inhibition at 100 µM [7]: 8.2%
inhibition at 50 µM [8]: 28%
inhibition at 12.5 µM [10]: 73.4%

IC50 [9]: 35.8 µM
SMILES: CCOC(=O)/C=C/c1cccc(OC(=O)c2nc(C)c(C)nc2C)c1
inhibition at 25 µM [1]: 62.2%
Activity [2]: 39.5%
Activity [3]: 34.2%
EC50 [4]: 92.6 µM
Activity [5]: 47%
Activity [6]: 27.9%
inhibition at 100 µM [7]: 69.4%
inhibition at 50 µM [8]: 59.6%
inhibition at 12.5 µM [10]: 25.1%

IC50 [9]: 9.6 µM
SMILES: Cc1nc(C)c(C(=O)Oc2ccccc2/C=C/C(=O)O)nc1C
inhibition at 25 µM [1]: 54.8%
Activity [2]: 64.9%
Activity [3]: 61.8%
EC50 [4]: 36.7 µM
Activity [5]: 80.1%
Activity [6]: 45.7%
inhibition at 100 µM [7]: 17.2%
inhibition at 50 µM [8]: 53.8%
inhibition at 12.5 µM [10]: 32.9%

IC50 [9]: 110 µM
SMILES: CCOC(=O)/C=C/c1ccccc1OC(=O)c1nc(C)c(C)nc1C
inhibition at 25 µM [1]: 16.6%
Activity [2]: 36.9%
Activity [3]: 17.8%
EC50 [4]: 108 µM
Activity [5]: 40.9%
Activity [6]: 9.6%
inhibition at 100 µM [7]: 42.4%
inhibition at 50 µM [8]: 39%
inhibition at 12.5 µM [10]: 11.8%

IC50 [9]: 57.2 µM
SMILES: Cc1nc(C)c(C(=O)Oc2ccc(Cl)cc2/C=C/C(=O)O)nc1C
inhibition at 25 µM [1]: 38.1%
Activity [2]: 23.7%
Activity [3]: 26%
EC50 [4]: 95.2 µM
Activity [5]: 52.2%
Activity [6]: 6.9%
inhibition at 100 µM [7]: 74.5%
inhibition at 50 µM [8]: 37%
inhibition at 12.5 µM [10]: 30%

IC50 [9]: 67.1 µM
SMILES: CCOC(=O)/C=C/c1cc(Cl)ccc1OC(=O)c1nc(C)c(C)nc1C
inhibition at 25 µM [1]: 36.9%
Activity [2]: 33.7%
Activity [3]: 62.5%
EC50 [4]: 36.1 µM
Activity [5]: 11%
Activity [6]: 64.9%
inhibition at 100 µM [7]: 61.7%
inhibition at 50 µM [8]: 44.4%
inhibition at 12.5 µM [10]: 26.3%

IC50 [9]: 28.2 µM
SMILES: CCOC(=O)/C=C/c1ccc(OC)cc1OC(=O)c1nc(C)c(C)nc1C
inhibition at 25 µM [1]: 32.6%
Activity [2]: 20.7%
Activity [3]: 16.9%
EC50 [4]: 138 µM
Activity [5]: 39.9%
Activity [6]: -57.6%
inhibition at 100 µM [7]: 47%
inhibition at 50 µM [8]: 18.7%
inhibition at 12.5 µM [10]: 84.2%

IC50 [9]: 7.6 µM
SMILES: COC(=O)[C@H](c1ccccc1Cl)N1CCc2sccc2C1 [CLOPIDOGREL]
inhibition at 25 µM [1]: 77.6%
inhibition at 100 µM [7]: 94.5%
inhibition at 50 µM [8]: 92.3%
inhibition at 12.5 µM [10]: 86.9%

IC50 [9]: 74.8 µM
SMILES: O=C(O)/C=C/c1ccc(O)cc1 [COUMARIC ACID]
inhibition at 25 µM [1]: 29.9%
inhibition at 100 µM [7]: 54.5%
inhibition at 50 µM [8]: 53.2%
inhibition at 12.5 µM [10]: 17.2%

IC50 [9]: 193 µM
SMILES: CCOC(=O)/C=C/c1ccc(O)c(OC)c1 [ETHYL FERULATE]
inhibition at 25 µM [1]: 11.5%
inhibition at 100 µM [7]: 26.5%
inhibition at 50 µM [8]: 17.9%
inhibition at 12.5 µM [10]: 4%

IC50 [9]: 130 µM
SMILES: CCOC(=O)/C=C/c1ccc(O)cc1 [ETHYL P-COUMARATE]
inhibition at 25 µM [1]: 16.4%
inhibition at 100 µM [7]: 37.9%
inhibition at 50 µM [8]: 25.5%
inhibition at 12.5 µM [10]: 5.8%

IC50 [9]: 116 µM
SMILES: O=C(O)/C=C/c1ccccc1O [O-COUMARIC ACID]
inhibition at 25 µM [1]: 21.4%
inhibition at 100 µM [7]: 42.9%
inhibition at 50 µM [8]: 30.5%
inhibition at 12.5 µM [10]: 10.8%

IC50 [9]: 144 µM
SMILES: O=C(O)/C=C/c1ccc(Cn2ccnc2)cc1 [OZAGREL]
inhibition at 25 µM [1]: 4.8%
inhibition at 100 µM [7]: 36.8%
inhibition at 50 µM [8]: 25%
inhibition at 12.5 µM [10]: 6.4%

The next lines start with the molecule.

SMILES: COc1cc(/C=C/C(=O)O)ccc1OC(=O)c1nc(C)c(C)nc1C
inhibition at 25 µM [1]: 22.8%
Activity [2]: 49.1%
Activity [3]: 40.3%
EC50 [4]: 69.4 µM
Activity [5]: 55.4%
Activity [6]: 38.7%
inhibition at 100 µM [7]: 73.2%
inhibition at 50 µM [8]: 46.2%
IC50 [9]: 44.6 µM
inhibition at 12.5 µM [10]: 60.6%

SMILES: CCOC(=O)/C=C/c1ccc(OC(=O)c2nc(C)c(C)nc2C)c(OC)c1
inhibition at 25 µM [1]: 37.2%
Activity [2]: 69.7%
Activity [3]: 53.3%
EC50 [4]: 38.6 µM
Activity [5]: 71.6%
Activity [6]: 52.4%
inhibition at 100 µM [7]: 64.4%
inhibition at 50 µM [8]: 49.9%
IC50 [9]: 58.4 µM
inhibition at 12.5 µM [10]: 31%

SMILES: COc1ccc(/C=C/C(=O)O)cc1OC(=O)c1nc(C)c(C)nc1C
inhibition at 25 µM [1]: 53.5%
Activity [2]: 159.6%
Activity [3]: 128.1%
EC50 [4]: 8.8 µM
Activity [5]: 216.3%
Activity [6]: 41.3%
inhibition at 100 µM [7]: 75.2%
inhibition at 50 µM [8]: 59.8%
IC50 [9]: 41.8 µM
inhibition at 12.5 µM [10]: 21.6%

SMILES: CCOC(=O)/C=C/c1ccc(OC)c(OC(=O)c2nc(C)c(C)nc2C)c1
inhibition at 25 µM [1]: 20.6%
Activity [2]: 89%
Activity [3]: 60.1%
EC50 [4]: 29.9 µM
Activity [5]: 117%
Activity [6]: 26.4%
inhibition at 100 µM [7]: 39.7%
inhibition at 50 µM [8]: 32.2%
IC50 [9]: 143 µM
inhibition at 12.5 µM [10]: 22.3%

SMILES: COc1ccc(/C=C/C(=O)O)c(OC(=O)c2nc(C)c(C)nc2C)c1
inhibition at 25 µM [1]: 35.1%
Activity [2]: 31.6%
Activity [3]: -52.1%
EC50 [4]: 115 µM
Activity [5]: 18%
Activity [6]: 39.7%
inhibition at 100 µM [7]: 40.9%
inhibition at 50 µM [8]: 34.1%
IC50 [9]: 134 µM
inhibition at 12.5 µM [10]: 16.5%

SMILES: COc1ccc(OC(=O)c2nc(C)c(C)nc2C)c(/C=C/C(=O)O)c1
inhibition at 25 µM [1]: 46.5%
Activity [2]: 62.9%
Activity [3]: 45%
EC50 [4]: 48.6 µM
Activity [5]: 79.2%
Activity [6]: 21.7%
inhibition at 100 µM [7]: 59.8%
inhibition at 50 µM [8]: 48.8%
IC50 [9]: 49 µM
inhibition at 12.5 µM [10]: 43.4%

SMILES: CCOC(=O)/C=C/c1cc(OC)ccc1OC(=O)c1nc(C)c(C)nc1C
inhibition at 25 µM [1]: 73.9%
Activity [2]: 27.8%
Activity [3]: 23.4%
EC50 [4]: 105 µM
Activity [5]: 46.2%
Activity [6]: 15.9%
inhibition at 100 µM [7]: 60.7%
inhibition at 50 µM [8]: 72.9%
IC50 [9]: 196 µM
inhibition at 12.5 µM [10]: 70.5%

SMILES: COc1cc(/C=C/C(=O)O)cc(OC)c1OC(=O)c1nc(C)c(C)nc1C
inhibition at 25 µM [1]: 17.4%
Activity [2]: 96.6%
Activity [3]: 24%
EC50 [4]: 34.7 µM
Activity [5]: 163%
Activity [6]: 5.7%
inhibition at 100 µM [7]: 52.1%
inhibition at 50 µM [8]: 51.2%
IC50 [9]: 82.3 µM
inhibition at 12.5 µM [10]: 12%

SMILES: CCOC(=O)/C=C/c1cc(OC)c(OC(=O)c2nc(C)c(C)nc2C)c(OC)c1
inhibition at 25 µM [1]: 47.2%
Activity [2]: -13.6%
Activity [3]: 20.9%
EC50 [4]: 21.4 µM
Activity [5]: -47%
Activity [6]: 96.6%
inhibition at 100 µM [7]: 59.5%
inhibition at 50 µM [8]: 55.9%
IC50 [9]: 37.5 µM
inhibition at 12.5 µM [10]: 44%

SMILES: Cc1nc(C)c(C(=O)Oc2ccc(/C=C/C(=O)O)cc2O)nc1C
inhibition at 25 µM [1]: 25%
Activity [2]: 284.8%
Activity [3]: 271.1%
EC50 [4]: 2.2 µM
Activity [5]: 601.4%
Activity [6]: 92.8%
inhibition at 100 µM [7]: 53.6%
inhibition at 50 µM [8]: 44.5%
IC50 [9]: 84.6 µM
inhibition at 12.5 µM [10]: 32.1%

SMILES: CCOC(=O)/C=C/c1cc(OC)c(O)c(OC)c1
Activity [2]: 32%
Activity [3]: 24.9%
EC50 [4]: 67.2 µM
Activity [5]: 69.1%
Activity [6]: 4.9%

SMILES: O=C(O)/C=C/c1ccc(O)c(O)c1 [CAFFEIC ACID]
Activity [2]: 149.5%
Activity [3]: 108.5%
EC50 [4]: 12.6 µM
Activity [5]: 155.6%
Activity [6]: 16.7%

SMILES: CCOC(=O)/C=C/c1ccc(O)c(O)c1 [ETHYL CAFFEATE]
Activity [2]: 134.8%
Activity [3]: 88.4%
EC50 [4]: 11.6 µM
Activity [5]: 146.9%
Activity [6]: 80.4%

SMILES: COc1ccc(/C=C/C(=O)O)cc1O [ISOFERULIC ACID]
Activity [2]: 62.9%
Activity [3]: 36.8%
EC50 [4]: 29.3 µM
Activity [5]: 81.9%
Activity [6]: 34.9%

SMILES: O=C(O)CCCCC1CCSS1 (stereo not drawn) [LIPOIC ACID, ALPHA]
Activity [2]: 48.7%
Activity [3]: -12.3%
EC50 [4]: 68 µM
Activity [5]: 58.1%
Activity [6]: 30.5%
